Test results as given in patent US9512420B2, “Use of N-acetylneuraminic acid aldolase in catalytic synthesis of N-acetylneuraminic acid” (Nanjing University of Technology, priority 2013, dated 2016).

Assays:
CgNal = CgNal (Corynebacterium glutamicum, UniProt Q8NMD2); assay: Effects of metal ions and surfactant on the CgNal activity; assay type: biochemical, Corynebacterium glutamicum ATCC 13032; conditions: for effect on reaction of CgNal in the decomposing Neu5Ac direction / effect on reaction of CgNal in the synthesizing Neu5Ac direction: pH 7.5; for overall effect on CgNal enzyme activity / effect on superiority of Neu5Ac synthesis over Neu5Ac decomposition: pH 8.5
[1] = substrate: CC(=O)N[C@@H]1C(O)O[C@H](CO)[C@@H](O)[C@@H]1O; assay: purified protein, by the assay type; conditions: substrate of CgNal, co-substrate fixed at 100 mM for ManNAc and pyruvic acid, 37.0 °C
[2] = substrate: CC(=O)C(=O)O; assay: purified protein, by the assay type; conditions: substrate of CgNal, co-substrate fixed at 100 mM for ManNAc and pyruvic acid, 37.0 °C
[3] = substrate: CC(=O)N[C@H]1[C@H]([C@H](O)[C@H](O)CO)OC(O)(C(=O)O)C[C@@H]1O; assay: purified protein, by the assay type; conditions: substrate of CgNal, co-substrate fixed at 100 mM for ManNAc and pyruvic acid, 37.0 °C

CCCCCCCCCCCCCCCC[N+](C)(C)C.[Br-] [CTAB]
effect on reaction of CgNal in the decomposing Neu5Ac direction (CgNal): inhibited | overall effect on CgNal enzyme activity (CgNal): decreased the enzyme activity

CCCCCCCCCCCCOS(=O)(=O)[O-].[Na+] [SDS]
effect on reaction of CgNal in the decomposing Neu5Ac direction (CgNal; 5 mM additive): inhibited | effect on reaction of CgNal in the synthesizing Neu5Ac direction (CgNal; 5 mM additive): promoted | effect on superiority of Neu5Ac synthesis over Neu5Ac decomposition (CgNal; 5 mM additive): promoted | overall effect on CgNal enzyme activity (CgNal; 5 mM additive): decreased the enzyme activity

CoCl2
effect on reaction of CgNal in the decomposing Neu5Ac direction (CgNal): inhibited | effect on reaction of CgNal in the synthesizing Neu5Ac direction (CgNal): promoted

NiSO4
effect on reaction of CgNal in the decomposing Neu5Ac direction (CgNal): inhibited | effect on reaction of CgNal in the synthesizing Neu5Ac direction (CgNal): promoted

ZnCl2
effect on reaction of CgNal in the decomposing Neu5Ac direction (CgNal): inhibited | effect on reaction of CgNal in the synthesizing Neu5Ac direction (CgNal): promoted | effect on superiority of Neu5Ac synthesis over Neu5Ac decomposition (CgNal): promoted | overall effect on CgNal enzyme activity (CgNal): decreased the enzyme activity

B1: CgNal (Corynebacterium glutamicum ATCC 13032) (protein)
chain: MASATFTGVIPPVMTPLHADGSVDVESLRKLVDHLINGGVDGLFALGSSGEAAFLTRAQRKLALTTIIEHTAGRVPVTAGVIETTTARVIELVEDALEAGAEGLVATAPFYTRTHDVEIEEHFRKIHAAAPELPLFAYNIPVSVHSNLNPVMLLTLAKDGVLAGTKDSSGNDGAIRSLIEARDDAGLTEQFKILTGSETTVDFAYLAGADGVVPGLGNVDPAAYAALAKLCLDGKWAEAAALQKRINHLFHIVFVGDTSHMSGSSAGLGGFKTALAHLGIIESNAMAVPHQSLSDEETARIHAIVDEFLYTA
Km ([1]; other: pH 7.5, pH 7.5): 53.3 mM | Vmax ([1]; other: pH 7.5, pH 7.5): 10.2 U/mg | Km ([1]; other: pH 8.5, pH 8.5): 92.1 mM | Vmax ([1]; other: pH 8.5, pH 8.5): 73.2 U/mg | Km ([2]; other: pH 7.5, pH 7.5): 14.7 mM | Vmax ([2]; other: pH 7.5, pH 7.5): 10.98 U/mg | Km ([2]; other: pH 8.5, pH 8.5): 72.4 mM | Vmax ([2]; other: pH 8.5, pH 8.5): 76.64 U/mg | Km ([3]; other: pH 7.5, pH 7.5): 33.5 mM | Vmax ([3]; other: pH 7.5, pH 7.5): 16.74 U/mg | Km ([3]; other: pH 8.5, pH 8.5): 87.7 mM | Vmax ([3]; other: pH 8.5, pH 8.5): 79.6 U/mg
